Like-named read-outs stand apart in the source and are kept apart here.
Legend:
[1] = system: healthy volunteers (two ex-smokers and one non-smoker); details: in vivo
smokers = details: nicotine containing droplets delivered to the alveolar region; cited from earlier work
[2] = from cigarettes containing 6 to 11 mg of nicotine; cited from earlier work

Row | Structure (SMILES) | Adverse effects ([1]; pH 2.9) | Comment (sensory perceptions and effects) ([1]; pH 3) | Adverse effects ([1]; pH 3.2) | Comment (sensory perceptions and effects) ([1]; pH 3.2) | Presence/Intensity of “buzz” ([1]; pH 3.2) | craving for cigarettes (smokers) | nicotine the smoker typically absorbs [2] [mg]
1 | CN1CCCC1c1cccnc1.O=C(O)C(O)C(O)C(=O)O (stereo not shown) [Nicotine Bitartrate, Nicotine bitartrate] | Slight | No taste, buzz | Slight | No taste, buzz | None | – | –
2 | CN1CCC[C@H]1c1cccnc1 [nicotine, S-3-(1-methyl-2-pyrrolidinyl)pyridine] | – | – | – | – | – | very rapid and sustained reduction of craving for cigarettes | 1 to 3

Reference: patent US20140261474A1, “METHODS FOR INHALATION OF SMOKE-FREE NICOTINE” (priority 2013, published 2014)
